The target in test [1] is T1, Mitogen-activated protein kinase 12 (Homo sapiens) (UniProt P53778).
T1 sequence (whole entry): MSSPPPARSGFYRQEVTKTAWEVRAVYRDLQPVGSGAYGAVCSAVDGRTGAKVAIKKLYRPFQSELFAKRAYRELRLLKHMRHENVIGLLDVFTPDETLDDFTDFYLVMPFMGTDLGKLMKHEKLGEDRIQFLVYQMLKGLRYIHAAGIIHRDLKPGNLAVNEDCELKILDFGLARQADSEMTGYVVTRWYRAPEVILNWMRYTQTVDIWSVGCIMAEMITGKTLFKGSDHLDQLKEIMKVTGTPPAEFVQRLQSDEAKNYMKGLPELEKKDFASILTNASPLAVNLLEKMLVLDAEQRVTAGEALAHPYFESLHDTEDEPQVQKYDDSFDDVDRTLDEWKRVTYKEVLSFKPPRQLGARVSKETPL
Nature of the test: Selectivity interaction (Kinase panel (Z-LYTE Assay)) EUB0001632a MAPK12. The conditions noted are these: at 10 µM.

The target in test [2] is Dual specificity protein kinase CLK3 (Homo sapiens, UniProt P49761). Put plainly: Selectivity interaction (Kinase panel (KiNativ target engagement assay in Jurkat cells)) EUB0001635a CLK3. It is filed as cell-based. The conditions noted are these: Selectivity number of off-targets 0.0, Selectivity number of targets 233.0, Source Knowledge https://www.sciencedirect.com/science/article/pii/S2451945619300674?via%3Dihub, at 1 µM.

Test [3] concerns the target Serine/threonine-protein kinase pim-3 (Homo sapiens) (UniProt Q86V86). Put plainly: Selectivity interaction (Ambit KINOMEscan and KiNATiv profiling in Jurkat cells) EUB0000090b PIM3. Format: cell-based. The following applies: at 1 µM.
In test [4] the target is Bromodomain-containing protein 4 (Homo sapiens, UniProt O60885). The conditions noted are these: at 10 µM.
In test [5] the target is Proto-oncogene tyrosine-protein kinase Src (Homo sapiens, UniProt P12931). Nature of the test: Selectivity interaction (KinomeScan (DiscoverX)) EUB0000666a SRC. The following applies: at 10 µM.
Test [6] has as its target T2, Serine/threonine-protein kinase ULK3 (Homo sapiens) (UniProt Q6PHR2).
T2 sequence (whole entry): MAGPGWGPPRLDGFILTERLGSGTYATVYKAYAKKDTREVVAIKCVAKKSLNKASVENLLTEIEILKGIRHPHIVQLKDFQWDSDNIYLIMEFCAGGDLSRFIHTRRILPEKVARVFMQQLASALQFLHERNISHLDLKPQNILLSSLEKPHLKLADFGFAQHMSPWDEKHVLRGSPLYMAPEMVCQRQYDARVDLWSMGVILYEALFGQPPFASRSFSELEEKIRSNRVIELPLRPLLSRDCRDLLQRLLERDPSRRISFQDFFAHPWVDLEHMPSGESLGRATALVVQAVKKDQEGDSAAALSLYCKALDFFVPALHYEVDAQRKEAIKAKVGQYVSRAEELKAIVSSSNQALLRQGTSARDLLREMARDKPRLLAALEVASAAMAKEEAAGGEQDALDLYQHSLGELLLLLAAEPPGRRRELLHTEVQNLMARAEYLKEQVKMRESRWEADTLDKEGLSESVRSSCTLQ
Nature of the test: Selectivity interaction (KinomeScan (DiscoverX)) EUB0000666a ULK3. The conditions noted are these: at 10 µM.

Test [7] deals with Protein arginine N-methyltransferase 6 (Homo sapiens, UniProt Q96LA8). Nature of the test: Selectivity interaction (Scintillation proximity assays) EUB0000255b PRMT6.
In test [8] the target is Cyclin-dependent kinase 5 (Homo sapiens, UniProt Q00535). Nature of the test: Selectivity interaction (ActivX KiNativ screen (kinase selectivity in THP-1 cell lysates)) EUB0000639a CDK5. The conditions noted are these: lysate, at 0.04 µM. It is filed as subcellular.
In test [9] the target is T3, Mitogen-activated protein kinase kinase kinase 3 (Homo sapiens) (UniProt Q99759).
T3 sequence (whole entry): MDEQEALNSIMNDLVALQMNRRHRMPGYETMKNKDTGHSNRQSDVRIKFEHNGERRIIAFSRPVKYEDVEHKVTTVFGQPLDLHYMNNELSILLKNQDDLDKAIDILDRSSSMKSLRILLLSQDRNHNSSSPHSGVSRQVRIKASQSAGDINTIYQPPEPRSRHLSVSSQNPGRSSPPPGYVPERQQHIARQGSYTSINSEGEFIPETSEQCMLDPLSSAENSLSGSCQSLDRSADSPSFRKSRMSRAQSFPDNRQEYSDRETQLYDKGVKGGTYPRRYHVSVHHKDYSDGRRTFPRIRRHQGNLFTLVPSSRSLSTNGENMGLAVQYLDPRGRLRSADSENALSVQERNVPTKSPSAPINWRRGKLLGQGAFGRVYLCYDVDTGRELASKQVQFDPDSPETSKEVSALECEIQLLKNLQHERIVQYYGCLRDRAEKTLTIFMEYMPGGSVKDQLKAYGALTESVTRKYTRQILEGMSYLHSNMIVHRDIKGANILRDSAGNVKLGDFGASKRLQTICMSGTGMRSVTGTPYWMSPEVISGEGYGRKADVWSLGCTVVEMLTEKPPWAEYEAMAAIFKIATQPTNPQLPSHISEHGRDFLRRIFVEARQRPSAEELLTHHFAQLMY
Nature of the test: Selectivity interaction (ActivX KiNativ screen (kinase selectivity in THP-1 cell lysates)) EUB0000639a MAP3K3. The conditions noted are these: lysate, at 0.04 µM. Format: subcellular.

The target of test [10] is T4, STE20-related kinase adapter protein alpha (Homo sapiens) (UniProt Q7RTN6).
T4 sequence (whole entry): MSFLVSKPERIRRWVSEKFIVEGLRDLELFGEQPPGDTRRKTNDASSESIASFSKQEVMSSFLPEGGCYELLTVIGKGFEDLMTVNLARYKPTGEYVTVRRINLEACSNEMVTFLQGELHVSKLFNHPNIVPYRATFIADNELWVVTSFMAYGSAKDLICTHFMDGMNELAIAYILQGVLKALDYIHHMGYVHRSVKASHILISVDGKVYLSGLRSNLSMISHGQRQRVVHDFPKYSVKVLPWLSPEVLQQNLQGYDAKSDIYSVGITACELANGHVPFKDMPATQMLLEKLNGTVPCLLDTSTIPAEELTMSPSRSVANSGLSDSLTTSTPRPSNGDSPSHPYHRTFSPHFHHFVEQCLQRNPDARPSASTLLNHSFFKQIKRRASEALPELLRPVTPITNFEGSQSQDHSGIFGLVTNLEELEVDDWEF
Nature of the test: Selectivity interaction (ActivX KiNativ screen (kinase selectivity in THP-1 cell lysates)) EUB0000639a STRADA. It is filed as subcellular. The following applies: lysate, at 1 µM.

Test [11] concerns the target Bone morphogenetic protein receptor type-1A (Homo sapiens, UniProt P36894). Nature of the test: Selectivity interaction (KinomeScan (DiscoverX)) EUB0001049a BMPR1A. The following applies: at 1 µM.
The target in test [12] is Calcium/calmodulin-dependent protein kinase kinase 2 (Homo sapiens) (UniProt Q96RR4). Put plainly: Selectivity interaction (KinomeScan (DiscoverX)) EUB0001049a CAMKK2. The conditions noted are these: at 1 µM.
Test [13] addresses Serine/threonine-protein kinase Nek7 (Homo sapiens) (UniProt Q8TDX7). Nature of the test: Selectivity interaction (Kinase panel (DSF assay)) EUB0001559a NEK7.
For test [14], the target named is G protein-coupled receptor kinase 6 (Homo sapiens) (UniProt P43250). Put plainly: Selectivity interaction (Upstate Kinase Profiler service (Millipore)) EUB0000056c GRK6. The conditions noted are these: at 1 µM.

Some results are limits rather than exact numbers.

Sequence of Bone morphogenetic protein receptor type-1A (P36894 whole entry): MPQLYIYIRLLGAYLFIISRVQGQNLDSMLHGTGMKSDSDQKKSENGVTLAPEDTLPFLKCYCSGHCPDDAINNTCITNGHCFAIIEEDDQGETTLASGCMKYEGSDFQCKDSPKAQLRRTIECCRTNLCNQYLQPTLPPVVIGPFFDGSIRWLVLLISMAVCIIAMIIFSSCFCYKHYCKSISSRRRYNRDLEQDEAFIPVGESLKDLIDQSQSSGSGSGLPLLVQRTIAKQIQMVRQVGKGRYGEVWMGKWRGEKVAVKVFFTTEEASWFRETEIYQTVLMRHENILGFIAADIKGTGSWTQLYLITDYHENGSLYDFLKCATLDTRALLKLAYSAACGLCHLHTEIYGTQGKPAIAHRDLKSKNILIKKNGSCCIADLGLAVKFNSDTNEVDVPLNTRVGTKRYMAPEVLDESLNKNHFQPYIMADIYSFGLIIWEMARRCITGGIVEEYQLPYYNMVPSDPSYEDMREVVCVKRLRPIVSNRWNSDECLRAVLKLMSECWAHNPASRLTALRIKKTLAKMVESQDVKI
Sequence of Cyclin-dependent kinase 5 (Q00535 whole entry, looked up): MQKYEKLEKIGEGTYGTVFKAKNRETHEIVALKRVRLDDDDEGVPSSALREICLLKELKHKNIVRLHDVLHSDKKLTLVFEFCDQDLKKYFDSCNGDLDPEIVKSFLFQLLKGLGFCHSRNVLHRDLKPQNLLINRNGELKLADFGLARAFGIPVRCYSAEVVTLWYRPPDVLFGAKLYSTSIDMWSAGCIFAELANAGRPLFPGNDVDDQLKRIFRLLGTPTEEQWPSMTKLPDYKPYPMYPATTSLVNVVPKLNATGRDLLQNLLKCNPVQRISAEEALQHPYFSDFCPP
Sequence of Calcium/calmodulin-dependent protein kinase kinase 2 (Homo sapiens) (Q96RR4 2-588 limits assumed): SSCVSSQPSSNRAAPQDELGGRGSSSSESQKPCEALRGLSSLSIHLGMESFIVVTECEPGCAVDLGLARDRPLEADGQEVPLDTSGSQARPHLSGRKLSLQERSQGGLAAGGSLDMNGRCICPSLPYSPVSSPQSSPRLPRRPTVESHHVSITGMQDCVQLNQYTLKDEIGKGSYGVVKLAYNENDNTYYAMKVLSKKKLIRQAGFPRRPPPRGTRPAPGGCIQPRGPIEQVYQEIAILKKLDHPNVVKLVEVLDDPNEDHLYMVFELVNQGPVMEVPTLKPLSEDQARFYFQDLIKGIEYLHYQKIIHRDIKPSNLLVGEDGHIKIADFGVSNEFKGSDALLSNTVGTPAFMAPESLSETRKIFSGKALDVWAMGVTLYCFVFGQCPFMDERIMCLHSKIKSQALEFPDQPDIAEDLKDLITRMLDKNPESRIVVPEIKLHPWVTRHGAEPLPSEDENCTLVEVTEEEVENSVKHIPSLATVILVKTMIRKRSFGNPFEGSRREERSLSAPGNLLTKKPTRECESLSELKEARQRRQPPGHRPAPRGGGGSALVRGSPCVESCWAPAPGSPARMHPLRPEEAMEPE
Sequence of Serine/threonine-protein kinase Nek7 (Homo sapiens) (Q8TDX7 whole entry, looked up): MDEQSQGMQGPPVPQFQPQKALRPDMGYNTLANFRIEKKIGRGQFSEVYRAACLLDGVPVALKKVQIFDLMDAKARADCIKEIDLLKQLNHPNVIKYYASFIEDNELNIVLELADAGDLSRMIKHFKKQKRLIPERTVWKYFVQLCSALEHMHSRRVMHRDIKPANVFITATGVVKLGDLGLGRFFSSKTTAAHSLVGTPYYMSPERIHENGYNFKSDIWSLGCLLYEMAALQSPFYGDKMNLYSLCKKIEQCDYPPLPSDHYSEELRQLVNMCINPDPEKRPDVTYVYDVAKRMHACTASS
Sequence of Proto-oncogene tyrosine-protein kinase Src (P12931 2-536 limits assumed): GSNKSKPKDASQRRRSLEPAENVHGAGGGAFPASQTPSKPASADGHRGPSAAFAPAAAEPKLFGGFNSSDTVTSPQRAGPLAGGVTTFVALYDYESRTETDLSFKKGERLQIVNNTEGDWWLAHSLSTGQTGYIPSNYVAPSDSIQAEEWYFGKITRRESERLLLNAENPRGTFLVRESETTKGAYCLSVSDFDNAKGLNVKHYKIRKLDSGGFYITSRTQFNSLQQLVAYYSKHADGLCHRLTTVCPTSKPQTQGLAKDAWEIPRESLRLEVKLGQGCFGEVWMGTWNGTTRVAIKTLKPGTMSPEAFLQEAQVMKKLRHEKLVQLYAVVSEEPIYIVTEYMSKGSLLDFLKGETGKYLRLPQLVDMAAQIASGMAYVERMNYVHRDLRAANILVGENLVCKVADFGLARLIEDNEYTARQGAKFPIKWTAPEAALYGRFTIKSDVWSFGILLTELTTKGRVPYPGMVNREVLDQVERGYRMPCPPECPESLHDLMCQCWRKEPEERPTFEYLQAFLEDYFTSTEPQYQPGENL
Sequence of G protein-coupled receptor kinase 6 (Homo sapiens) (P43250 whole entry, looked up): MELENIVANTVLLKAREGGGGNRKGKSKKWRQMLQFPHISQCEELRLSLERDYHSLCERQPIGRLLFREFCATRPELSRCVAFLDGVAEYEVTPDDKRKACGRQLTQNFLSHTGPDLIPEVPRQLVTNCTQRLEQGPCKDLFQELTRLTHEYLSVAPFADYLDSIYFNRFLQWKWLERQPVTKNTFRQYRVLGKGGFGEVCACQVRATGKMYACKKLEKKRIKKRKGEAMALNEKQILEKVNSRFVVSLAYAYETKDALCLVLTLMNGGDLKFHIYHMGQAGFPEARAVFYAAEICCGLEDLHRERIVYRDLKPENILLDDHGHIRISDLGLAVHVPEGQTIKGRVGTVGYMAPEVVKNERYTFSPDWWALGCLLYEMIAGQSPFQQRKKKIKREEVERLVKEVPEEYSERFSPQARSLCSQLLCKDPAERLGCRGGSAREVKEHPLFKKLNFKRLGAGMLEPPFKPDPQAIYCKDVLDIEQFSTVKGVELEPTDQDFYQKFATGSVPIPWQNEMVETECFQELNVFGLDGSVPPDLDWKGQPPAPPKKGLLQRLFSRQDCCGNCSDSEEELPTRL
Sequence of Dual specificity protein kinase CLK3 (P49761 whole entry, looked up): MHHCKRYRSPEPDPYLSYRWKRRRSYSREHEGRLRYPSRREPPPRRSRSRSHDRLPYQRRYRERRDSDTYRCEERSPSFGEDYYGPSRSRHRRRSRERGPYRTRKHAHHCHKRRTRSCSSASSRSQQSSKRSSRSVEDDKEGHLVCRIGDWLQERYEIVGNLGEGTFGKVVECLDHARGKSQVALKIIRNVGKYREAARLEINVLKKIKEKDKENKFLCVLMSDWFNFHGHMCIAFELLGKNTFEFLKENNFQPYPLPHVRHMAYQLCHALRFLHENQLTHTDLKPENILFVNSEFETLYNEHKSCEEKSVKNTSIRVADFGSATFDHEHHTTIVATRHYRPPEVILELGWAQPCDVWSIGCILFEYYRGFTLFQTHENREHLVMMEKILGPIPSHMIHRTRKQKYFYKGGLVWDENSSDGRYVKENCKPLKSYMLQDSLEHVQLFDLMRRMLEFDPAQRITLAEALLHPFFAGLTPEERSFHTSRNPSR
Sequence of Protein arginine N-methyltransferase 6 (Q96LA8 whole entry): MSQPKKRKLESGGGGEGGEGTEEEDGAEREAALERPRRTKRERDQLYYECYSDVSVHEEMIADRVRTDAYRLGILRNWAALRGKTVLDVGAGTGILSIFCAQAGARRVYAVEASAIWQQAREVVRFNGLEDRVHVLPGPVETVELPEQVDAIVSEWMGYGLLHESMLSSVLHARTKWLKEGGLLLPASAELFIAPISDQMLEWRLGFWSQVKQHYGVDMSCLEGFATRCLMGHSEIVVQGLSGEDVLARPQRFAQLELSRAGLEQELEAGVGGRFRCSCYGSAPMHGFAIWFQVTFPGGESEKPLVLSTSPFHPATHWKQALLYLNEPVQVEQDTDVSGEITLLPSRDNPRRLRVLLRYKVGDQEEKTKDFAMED

In turn, `Cn1cc(-n2cnc3c(NCc4nc5cc(Cl)c(Cl)cc5[nH]4)nc(N4CCOCC4)nc32)cn1` returned a % of control in test [1] of 1.47%.
`C=CC(=O)Nc1ccc(C(=O)Nc2[nH]nc3c2CN(C(=O)N[C@H](CN(C)C)c2ccccc2)C3(C)C)cc1` registered a % of engagement in [2] of 4.3%.
In test [3], `CN(C)C/C=C/C(=O)Nc1ccc(C(=O)N2CCCC(Nc3ncc(Cl)c(-c4c[nH]c5ccccc45)n3)C2)cc1` (centres undefined) returned a % of control of 99%.
As for `Cc1cc([C@@H](C)Nc2ccccc2C(=O)O)c2nc(N3CCOCC3)cc(=O)n2c1` [AZD-6482], the % of control in [4] came to 82%.
As for `O=C(NOC[C@H](O)CO)c1ccc(F)c(F)c1Nc1ccc(I)cc1F`, the % of control in test [5] turned out to be 69%; in test [6], 89%.
For `COCCN1CCC(c2cc(CN(C)C(=O)c3cccc(Oc4ccccc4)c3)ccn2)CC1`, the IC50 in [7] is over 10 µM.
Regarding `CC[C@@H]1[C@H](F)C(=O)N[C@@H]1COc1nccc2cc(C(N)=O)c(OC)cc12` [ZIMLOVISERTIB], the values for the % of inhibition in [8], in test [9] and in test [10] were 8.4%, 8.3% and -7.6%, respectively.
As for `COc1cc(Nc2nc(C)cc(-c3cnn4nc(OC)ccc34)n2)cc(C(F)(F)F)c1`, the % of control in test [11] and in test [12] was 100% throughout.
In the case of `CN(C(=O)c1cnn2cccnc12)c1cc2c(cc1N1CCOCC1)C(=O)N(C[C@@H](F)C(C)(C)O)C2`, in test [13], the dTM came out at 0.5 K.
Regarding `Cc1ccc(-c2ccc3c(ccc4sc5c(c43)NC[C@@H](C)NC5=O)n2)cn1`, the % of inhibition in [14] was 10%.
